For orientation: melting point means the temperature of the solid-liquid transition.

The values that follow come from a melting point compilation (Tetko et al.; mined from patent text by program, amines drawn as free bases though some values may be those of a salt).

As for `COc1cc(C(=O)c2cccnc2)cc([N+](=O)[O-])c1O`, the melting point worked out at 193 °C. Turning to `COC(=O)CCc1ccc(N2CCN(c3ccc(CN)cc3C)C2=O)cc1`, the melting point was > 275 °C. `COc1cc2c(cc1OC)CN(CCCc1ccc(N)cc1)CC2` registered a melting point of 138 °C.

In the case of `Nc1ccc(OC23CC4CC(CC(C4)C2)C3)cc1`, the melting point was in the range of 172 to 175 °C. With `CC(C)CNc1cccnc1N1CCN(C(=O)c2ccc(C(=O)NC(C)C)cn2)CC1`, the melting point lay in the range of 132 to 134 °C. `COC(=O)c1ccc(Oc2ccc(O)cc2)cc1` came in with a melting point of 130 to 134 °C.

As to `C=C[Si](C)(c1ccccc1)c1cccc(Cl)c1C(=O)NCC` (stereo unspecified), the melting point was 85 to 87 °C.

As for `COc1ccc(CS(=O)(=O)c2cc3ccc(O)cc3oc2=O)cc1[N+](=O)[O-]`, the melting point was in the range of 126 to 128 °C. For `Fc1ccc(F)c(CN2CCNc3ncc(-c4ccc(N5CCOCC5)nc4)cc32)c1` the value was 206 to 207 °C; for `O=S(=O)(CC=Cc1ccccc1)CCCOC1CCCCO1` (stereo unspecified), 45 °C. Consider `CC1(C)CC(N=[N+]=[N-])c2cc(C#N)ccc2O1` (stereo unspecified), for which the melting point was in the range of 63 to 64 °C. `COc1cc(OC)cc(-c2nc(CCOc3ccc(C[C@H](OC)C(=O)O)c4sccc34)c(C)o2)c1` yielded a melting point of 194 to 195 °C. For `Cc1cc(C)c(CC(=O)NNC(=O)OC(C)(C)C)c(C)c1` the value was 138 to 140 °C. For `CCCCCCCCCCCCCCCC(=O)N1C[C@H](O)C[C@H]1C(=O)OCCCCCCCCCCCC` the value was 39 to 44 °C; for `Cc1cc(CCCCCOc2ccc(C3=NCCO3)cc2)on1`, 102 to 104 °C. With `CS(=O)(=O)c1c(Cl)nc(N)nc1Cl`, the melting point turned out to be 275 °C. On to `CN1CCCCC1CCc1ccccc1NC(=O)c1ccc([N+](=O)[O-])cc1` (stereo unspecified), for which the melting point was in the range of 162 to 164 °C. `c1ccc(OCCSCc2nnc(-c3ccc4[nH]ccc4c3)o2)cc1` yielded a melting point of 130 to 132 °C. With `COC(=O)CC(C#Cc1ccc(C(=O)O)cc1)c1ccc(OC)c(OC2CCCC2)c1` (racemic), the melting point was in the range of 109 to 110 °C. For `CC1CCCC1(Oc1ccc(CC(=O)c2ccc3c(c2)CCC3)cc1)C(=O)O` (stereo unspecified) the value was 191 to 193 °C; for `O=c1cc2sc3ccccc3nc-2c2ccccc12`, 176 to 177 °C; for `COc1cc(Oc2ccc(S(C)(=O)=O)cn2)cc2cc(C3=NCC(CC(C)(C)O)S3)[nH]c12` (stereo unspecified), 171 to 173 °C. Under `CC(=O)Nc1ccc(C(=O)N2CC2C#N)c(OC(C)=O)c1` (stereo unspecified) stands 118 to 120 °C; under `Cc1ccccc1C(=O)N1CCC(=O)c2ccc(Cl)cc21`, 106 to 108 °C; under `N#CCc1c[nH]c2ccc(NC(=O)c3ccc[nH]3)cc12`, 216 to 218 °C. For the compound `CCN(C(=S)Oc1ccc(C(C)C)cc1)c1cccc(OC)n1`, the melting point fell in the range of 53 to 54 °C.

Turning to `CCCCC(=NO)C(=O)OCC`, the melting point fell in the range of 43.2 to 46.8 °C. Under `CCc1nc2c(N)nc3cc(OCCc4c(C)n[nH]c4C)ccc3c2s1` stands 195 to 197 °C. `COc1ccc(-c2sc3c(c2CBr)c(=O)c(-c2cnco2)cn3Cc2ccccc2F)cc1` came in with a melting point of 234 to 236 °C. For `CNC(=O)c1cn(C)c(=O)cc1Nc1ccc(I)cc1F`, the melting point lay in the range of 252 to 254 °C. `Cc1nc2cc(Cl)ccc2c(=O)n1C1CCC(=O)NC1=O` (stereo unspecified) registered a melting point of 291 to 293 °C. The compound `COc1cc(Nc2c(C#N)cnc3cc(-c4ccc(CN5CCOCC5)cn4)ccc23)c(Cl)cc1Cl` registered a melting point of 220 to 222 °C.

The compound `OC(CSC(=S)Nc1ccccn1)c1ccccc1` (stereo unspecified) came in with a melting point of 82 °C.

Regarding `O=C(O)CCCCCSC1=CCCC1=O`, the melting point lay in the range of 77.5 to 78 °C. The compound `COCCOCCOc1cc(N)c(C#N)cc1[N+](=O)[O-]` came in with a melting point of 106 to 108 °C. For the compound `Cc1ccc(-c2cn3c(n2)sc2cc(O)ccc23)cc1`, the melting point lay within 275 to 277 °C. For `CCCCc1cnc(NCCCOc2cccc(CN3CCCCC3)c2)[nH]c1=O` the value was 105 to 106 °C. With `CC(C)(S)CN(Cc1ccccc1)C(=O)CCC(=O)O`, the melting point was 123 to 126 °C. In turn, `CCc1cc(C(=O)NCc2ccc(-c3ccc(OC(F)F)cc3)cc2)n(C)n1` showed a melting point of 107 to 108 °C. Regarding `O=C1NCCc2c(OCc3ccccc3)cccc21`, the melting point was in the range of 171 to 173 °C. For the compound `O=C(NCc1ccc(Cl)cc1)c1cnc2cc(C(F)(F)F)ccc2c1O`, the melting point fell in the range of 189 to 190 °C. Under `CC(=O)C(C)(C)CS(=O)(=O)c1ccccc1` stands 56 to 58 °C; under `O=C(COC(=O)Cc1ccccc1Nc1c(Cl)cccc1Cl)NCCO[N+](=O)[O-]`, 81 to 83 °C. For `Nc1ccc(Cn2cnnn2)cc1`, the melting point lay in the range of 138 to 140 °C. Under `CCCc1c(OCCCOc2cccc(C(=O)O)c2)ccc(C(C)=O)c1O` stands 142 to 143 °C; under `O=c1[nH]nc2n1CCc1ccccc1C2`, 253 to 261 °C; under `Cn1c2ccccc2c2c3ccc(Cl)cc3c(=O)[nH]c21`, > 310 °C. `CCC(=O)NCC[C@@H]1CCc2ccc(O)c(CCO)c21` returned a melting point of 144 to 146 °C.

For `CC(=Cc1cn(-c2cccnc2)c2ccccc12)C(=O)O`, the melting point lay in the range of 213 to 215 °C. `COC(=O)COc1cc(C(=O)OC)nc2cc(Cl)ccc12` gave a melting point of 154 °C. Under `CC(C)(C)c1cc(C=Cc2cc(C=Cc3cc(C(C)(C)C)cc(C(C)(C)C)c3)cc(CO)c2)cc(C(C)(C)C)c1` stands 226 to 228 °C; under `CC1=C(C(=O)OC(C)(C)C)C(c2cccc(Br)c2)C(C(=O)OC(C)(C)C)=C(C)N1`, 195 to 196 °C. Under `O=C(O)CCCC1NCC2CCCN3CCCC1C23` (stereo unspecified) stands 185 to 187 °C. Under `COc1cccc(-c2cc(F)c3c(c2)CC(CN)O3)c1` (stereo unspecified) stands > 250 °C. The compound `O=S1(=O)N=CN(C2CC2)c2cccc(F)c21` gave a melting point of 156 to 157 °C. Under `CN(C)c1nc(Cl)nc(-n2ccnc2)n1` stands 88 to 92 °C. Compound `Cc1cc(Oc2cccc(C(=O)O)n2)n(C)n1` registered a melting point of 182 °C. The compound `CC(=O)Nc1cccc(N(C)C)n1` returned a melting point of 118 to 119 °C.

`COC(=O)[C@H](Cc1ccc([N+](=O)[O-])cc1)NC(=O)OC(C)(C)C` came in with a melting point of 95 to 96 °C.

Consider `CCc1cc2[nH]c(=O)c(=O)[nH]c2cc1Cl`, for which the melting point was > 315 °C.

Compound `Cc1oc(-c2ccccc2)nc1COc1ccc(COc2ncccc2CC(=O)O)cn1` yielded a melting point of 147 to 148 °C. With `O=Cc1cc(OCCCC(=O)O)ccc1[N+](=O)[O-]`, the melting point is 112 to 114 °C. The compound `O[C@H](CCc1cccnc1)COc1ccc(-c2ccc(Cl)cc2)cc1` showed a melting point of 117 to 118 °C.

For `O=C(Nc1nn(-c2ccccc2)cc1C(=O)O)OCc1cc2cc(-c3ccccc3)ccc2o1`, the melting point stood at 221 °C. On to `CCCCCCCCCCCCCCOc1ccc2c(C)cc(=O)oc2c1`, for which the melting point fell in the range of 61 to 62 °C. As for `O=C(Cc1cccnc1)[N+]1([O-])CCC(=C2c3ccc(Cl)cc3CCc3cccnc32)CC1` (stereo unspecified), the melting point lay within 120 to 121 °C.

`CCOC(=O)Nc1ccc2oc(CCC(F)(F)F)cc2c1` had a melting point of 108 °C. Compound `CCn1ccc(-c2cccc(-c3ccnc4c(C(=O)c5cccs5)cnn34)c2)n1` gave a melting point of 61 °C.

`CCNC(=O)c1c([Si](C)(C)C)ccc(C)c1Cl` showed a melting point of 120 to 122 °C. Compound `Cc1ccc(C(=O)Nc2c[nH]nc2C(=O)NCCC#N)cc1` showed a melting point of 207 to 209 °C. Turning to `O=C(NCCCn1cncn1)c1ccc(Cl)nc1`, the melting point is 87 to 89 °C. For `CCOC(=O)c1c([N+](=O)[O-])ccc(OC)c1OC`, the melting point is 70 to 72 °C. With `CCOC(=O)CN1C(=O)c2cccc3c(Sc4ccccc4)ccc(c23)C1=O`, the melting point lay in the range of 132 to 134 °C. On to `COc1ccc(-c2cc(=O)c3c(O)cc(OCC4=COC(C)(C)O4)cc3o2)cc1OC`, for which the melting point amounted to 166 °C. The compound `COC(=O)c1cc(CC(C)NCC(O)c2ccc(O)c(CO)c2)ccc1OC` (stereo unspecified) showed a melting point of 69 to 73 °C. Turning to `CCOC(=O)c1cnc2cc(I)ccc2n1`, the melting point was in the range of 160 to 162 °C.

Consider `COc1ccc(-n2c(-c3sc(Nc4ccccc4)nc3-c3ccccc3)nc3ccccc3c2=O)cc1`, for which the melting point was in the range of 135 to 137 °C. With `CCOC(=O)C1C(=O)c2cc(OC)ccc2N=C1c1ccccc1` (stereo unspecified), the melting point lay in the range of 225 to 227 °C. The compound `O=C(O)C1CCc2c(-c3ccc(Cl)cc3)noc2C1` (stereo unspecified) yielded a melting point of 227 to 228 °C. On to `Cc1nn(-c2cc(C(=O)O)c(Cl)cc2F)c(=O)n1C(F)F`, for which the melting point lay within 132 to 135 °C. For `C=CCN[C@H]1CC(C(=O)OCC)=C[C@@H](OC(CC)CC)[C@@H]1NC(C)=O` the value was 100 to 104 °C; for `CN(C)c1ncc(-c2cccc(Nc3ccc(-c4ccco4)cc3[N+](=O)[O-])c2)cn1`, 160 to 161 °C; for `COC(=O)C(Cc1ccc(OCCc2nc(-c3ccccc3)oc2C)cc1)C(=O)NC(C)=O` (stereo unspecified), 126 to 128 °C. The compound `C=C(C)C#Cc1cccc2c1C(=O)OC(C)(C)O2` returned a melting point of 60 °C.

Take `COC(=O)C=Cc1ccc(-c2ccc(C=CC(=O)OC)cc2C(F)(F)F)c(C(F)(F)F)c1`: the melting point was in the range of 158 to 161 °C. As to `CCN(CC)CCCNC(=O)c1ccc(S(N)(=O)=O)cc1`, the melting point is 122 to 123 °C. `CCCCCCCN(CCc1ccc(OC(C)(C)C(=O)O)cc1)C(=O)Nc1ccc(F)cc1`: the melting point lay within 162 to 164 °C. With `Cc1oncc1C(=O)N1CCC[C@H](c2nc(-c3cc4ccccc4[nH]3)no2)C1`, the melting point lay in the range of 163 to 164 °C. Consider `CN[C@@H]1CN(c2cc3c(cc2F)c(=O)c(C(=O)O)cn3C(C)(C)C)[C@H]1C` (relative stereo), for which the melting point lay within 194 to 195 °C. Compound `CCN(CC)c1ccc2nc3c4ccccc4c(=Nc4ncc(Cl)cc4Cl)cc-3oc2c1` returned a melting point of 192 to 193 °C.

Consider `c1ccc(C2CCN(CC34CC(c5ccccc53)c3ccccc34)CC2)cc1`, for which the melting point was > 300 °C.
